# Data reported in patent US11479554B2, “Pharmaceutical compositions comprising perillyl alcohol derivatives” (NeOnc Technologies, Inc., priority 2015, dated 2022).
# Key:
# [1] = tested on: MGMT negative human melanoma cells A2058; assay: Colony formation assay (cytotoxicity), A2058 melanoma cells; type: cell-based; conditions: 48-hour drug incubation, colonies counted 7-10 days later, compared at similar concentrations (FIG. 1)
# Procedure: (§1) The cytotoxicity of TMZ, POH-TMZ, and POH-TMZ-Linoleate were studied by colony formation assay of A2058 and A375 melanoma cells. A2058 and A375 cells were harvested and made single cell suspension in culture medium (DMEM with 10% FBS, 1% Penicillin/Streptomycin). 500 cells/well were seeded into 12-well plate (tissue culture treated, from Olympus Plastics) pre-warmed culture medium at 37° C. The cells were cultured overnight for attachment to the plate. Then the medium was removed and replaced with fresh medium containing varied concentrations of drugs (or no drugs as a control) for further 48-hour incubation. After 48 hours treatment, the medium was aspirated and replaced with normal culture medium. 7-10 days later, the culture medium was aspirated, and the colonies formed inside the wells were washed with cold PBS once. Then the colonies were stained with 0.1% methylene blue (in methanol) for 4-6 hours. The plates were then washed and the formed colonies counted (the colonies formed with 20 cells or more are countable).
# [2] = tested on: MGMT positive human melanoma cells A375; assay: Colony formation assay (cytotoxicity), A375 melanoma cells; type: cell-based; conditions: 48-hour drug incubation, colonies counted 7-10 days later, compared at similar concentrations (FIG. 2)
# Procedure: as §1
# [3] = tested on: human melanoma tumor cells, A2058; assay: In vivo tumor growth inhibition, subcutaneous A2058 melanoma in nude mice, topical treatment, with CD31 histology
# Procedure: Inhibition of tumor growth by POH-TMZ-linoleate was studied in nude mice. Nude mice were injected subcutaneously with 2×10^6 human melanoma tumor cells, A2058. The melanoma cells were allowed to form a palpable nodule in the mice. When the tumor size reached 1.0-1.5 cm in diameter in any dimension, a control mouse was treated topically with a vehicle (10% DMSO in 45% Glycerol+45% ethanol), and a test mouse was topically treated with TPL (50 mM TPL working solution was reconstituted in 45% Glycerol+45% Ethanol, and 100 μl (25 mg/kg) was applied topically on the skin which covers the whole tumor). The control mouse and the test mouse were both treated twice daily for 14 days.
# After the 14 days of treatment the mice were sacrificed, the tumor removed, sectioned at 8 μm, fixed with acetone, and stored at −20° C. For histological analysis, the tissues were blocked with sea block and stained with the primary antibody Rat anti Mouse (1:50) overnight following which secondary biotinylated goat anti rat antibody (1:200) was added for 45 minutes, washed and avidin biotin complex, ABC elite was added for 30 minutes, washed and then stained with AEC and counter stained with hematoxylin. Such staining was used to evaluate the endothelial marker CD31 expression, which is representative of the amounts of blood vessels in the tumor. Staining images were captured at 40× under optical microscope. […] The histological analysis results were further quantified using ImageJ software by measuring the average area of staining in the tumors of the test mouse after TPL treatment and the control mouse, where the average area of staining was calculated based on the red precipitate of the stain in μm^2. From FIG. 5, it can be seen that the average area of staining is much smaller in the tumor of the test mouse than that in the control mouse.
structure (smiles),measurement,setting,value
"C=C(C)[C@@H]1CC=C(COC(=O)NC(=O)c2ncn3c(=O)n(C)nnc23)CC1 [POH-TMZ, reference compound]",colonies count (effectiveness in killing the melanoma cells),[1],more effective than TMZ
same,colonies count (effectiveness in killing the melanoma cells),[2],more effective than TMZ
"C=C(C)[C@@H]1CC=C(COC(=O)N(C(=O)CCCCCCC/C=C\C/C=C\CCCCC)C(=O)c2ncn3c(=O)n(C)nnc23)CC1 [POH-TMZ-linoleate, (3-Methyl-4-oxo-3,4-dihydro-imidazo[5,1-d][1,2,3,5]tetrazine-8-carbonyl)-octadeca-9,12-dienoyl-carbamic acid 4-isopropenyl-cyclohex-1-enylmethyl ester]",colonies count (effectiveness in killing the melanoma cells),[1],more effective in killing the melanoma cells than POH-TMZ
same,colonies count (effectiveness in killing the melanoma cells),[2],more effective in killing the melanoma cells than POH-TMZ
same,"tumor angiogenesis (CD31 staining, visual inspection) versus vehicle-treated mouse","[3]; after 14 days of topical treatment, FIGS. 4D-4F vs 4A-4C",much lower
same,average area of CD31 staining in the tumor versus control mouse,"[3]; after 14 days of topical treatment, ImageJ quantification, FIG. 5",much smaller
same,vascularization of the tumor compared with the tumor before the treatment,"[3]; topical 25 mg/kg twice daily for 14 days, FIG. 3B vs FIG. 3A",reduced vascularization
same,appearance of the tumor surface after treatment,"[3]; topical 50 mM, 100 μl (25 mg/kg) twice daily for 14 days, FIG. 3B",developed a hard surface
